Experimental data reported in US20230295152A1 (SENDA BIOSCIENCES, INC., priority 2019, published 2023).
Read-outs that look alike come from different tables or passages of the source.

Columns and labels:
[1] = Plasma Protein Binding with Ultracentrifugation Method, human; type: in vitro ADME; conditions: for fraction unbound at 30 min, 1 μM: human plasma, read-out: Human plasma protein binding (% bound); for fraction unbound at 5.5 h, 1 μM: human, plasma, read-out: Plasma Protein Binding PPB (h) % (converted)
Method: The frozen plasma (stored at −80° C.) was thawed in a 37° C. water bath, followed by centrifugation at 3,220 g for 10 minutes to remove clots. The supernatant was removed into a new tube as the spun plasma. The spun plasma was pre-warmed in a 37° C. water bath for 10 minutes. The stock solutions of test compounds were diluted to 200 μM in DMSO, and then spiked into the plasma. Duplicate samples were prepared. The final concentration of compound was 1.0 μM. The final concentration of organic solvent was 0.5%. Warfarin was used as positive control in the assay. 1.0 mL of the spiked plasma was transferred to a new balance ultracentrifuge tube. Samples were incubated at 37° C., 5% CO2 for 30 minutes. After incubation, the balance ultracentrifuge tubes were centrifuged at 600,000 g for 5.5 hours at 37° C. After centrifugation, 50 μL solution was removed from the center of the ultracentrifuge tubes as the post-ultracentrifugation samples, followed by the addition of 50 μL blank plasma and 400 μL quench solution (acetonitrile containing internal standards (IS, 100 nM Alprazolam, 500 nM Labetalol and 2 μM Ketoprofen)) to precipitate protein and release compounds. Samples were vortexed for 2 minutes, followed by centrifugation at 20,000 g for 15 minutes at room temperature. The supernatant was diluted with ultrapure water and then used for LC-MS/MS analysis. Stability samples was prepared by transferring 50 μL of the spiked plasma to 0.6 mL tubes and incubated at 37° C., 5% CO2 for 0.5 and 6 hours. After incubation, 50 μL PBS (100 mM, pH7.4) and 400 μL quench solution were added to the stability samples. And then stability samples were treated the same way as the post-ultracentrifugation samples. The supernatant was diluted with ultrapure water and then used for LC-MS/MS analysis. 0.5 hour time point samples were also used as no-spun controls. Time 0 samples were prepared by transferring 50 μL spiked plasma to 0.6 mL tubes containing 50 μL PBS, followed by the addition of 400 μL quench solution to precipitate protein and release compound. And then these samples were treated the same way as the post-ultracentrifugation samples. The supernatant was diluted with ultrapure water and then used for LC-MS/MS analysis.
Data Analysis: All calculations were carried out using Microsoft Excel. The concentrations of test compound in plasma samples and post-ultracentrifugation plasma was determined from peak areas. The percentages of test compound bound was calculated as follows: […]
“+++” indicates a % bound value less than 50, “++” indicates a % bound value between 50 and 75, and “+” indicates a % bound value above 75.

[2] = Caco-2 Permeability Assay; type: in vitro ADME; conditions: human
Method: Preparation of Caco-2 Cells: 50 μL and 25 mL of cell culture medium were added to each well of the Transwell insert and reservoir, respectively. The HTS transwell plates were incubated at 37° C., 5% CO2 for 1 hour before cell seeding. Caco-2 cells were diluted to 6.86×10^5 cells/mL with culture medium and 50 μL of cell suspension were dispensed into the filter well of the 96-well HTS Transwell plate. Cells were cultivated for 14-18 days in a cell culture incubator at 37° C., 5% CO2, 95% relative humidity. Cell culture medium was replaced every other day, beginning no later than 24 hours after initial plating.
Assessment of Cell Monolayer Integrity: Medium was removed from the reservoir and each Transwell insert and replaced with prewarmed fresh culture medium. Transepithelial electrical resistance (TEER) across the monolayer was measured using Millicell Epithelial Volt-Ohm measuring system (Millipore, USA). The Plate was returned to the incubator once the measurement was done. The TEER value was calculated according to the following equation:
TEER measurement(ohms)×Area of membrane(cm^2)=TEER value(ohm·cm^2)
TEER value should be greater than 230 ohm·cm^2, which indicates the well-qualified Caco-2 monolayer.
Preparation of Solutions: 2 mM stock solutions in DMSO of control compounds were prepared and diluted with HBSS (10 mM HEPES, pH 7.4) to get 10 μM working solution. 0.2 mM stock solutions of test compounds in DMSO were prepared and diluted with HBSS (10 mM HEPES, pH 7.4 with 0.5% BSA) to get 1 μM working solution. Metoprolol, erythromycin and cimetidine were used as control compounds.
Performing the Drug Transport Assay: The Caco-2 plate was removed from the incubator. The monolayer was washed twice with pre-warmed HBSS (10 mM HEPES, pH 7.4). The plate was incubated at 37° C. for 30 minutes. To determine the rate of drug transport in the apical to basolateral direction, 125 μL of the working solution was added to the Transwell insert (apical compartment). A 50 μL sample was transferred immediately from the apical compartment to 200 μL of acetonitrile containing IS (100 nM alprazolam, 200 nM Caffeine and 100 nM tolbutamide) in a new 96-well plate as the initial donor sample (A-B) and it was vortexed at 1000 rpm for 10 minutes. The wells in the receiver plate (basolateral compartment) were filled with 235 μL of transport buffer. To determine the rate of drug transport in the basolateral to apical direction, 285 μL of the working solution were added to the receiver plate wells (basolateral compartment). A 50 μL sample was transferred immediately from the basolateral compartment to 200 μL of acetonitrile containing IS (100 nM alprazolam, 200 nM Caffeine and 100 nM tolbutamide) in a new 96-well plate as the initial donor sample (B-A) and it was vortexed at 1000 rpm for 10 minutes. The Transwell insert (apical compartment) was filled with 75 μL of transport buffer. The apical to basolateral direction and the basolateral to apical direction need to be done at the same time. The plates were incubated at 37° C. for 2 hours. At the end of the incubation, 50 μL samples from donor sides (apical compartment for Ap→B1 flux, and basolateral compartment for B1→Ap) and receiver sides (basolateral compartment for Ap→B1 flux, and apical compartment for B1→Ap) were transferred to wells of a new 96-well plate, followed by the addition of 4 volume of acetonitrile containing IS (100 nM alprazolam, 200 nM Caffeine and 100 nM tolbutamide). Samples were vortexed for 10 minutes, 50 μL samples were transferred to wells of a new 96-well plate, followed by the addition of 50 μL Hepes and 200 μL IS. A11 samples were vortexed for 10 minutes, and then centrifuged at 3,220 g for 40 minutes. An aliquot of 150 μL of the supernatant was mixed with an appropriate volume of ultra-pure water before LC-MS/MS analysis.
Data analysis: All calculations were carried out using Microsoft Excel. Peak areas were determined from extracted ion chromatograms. […]

[3] = Caco-2, pH 7.4, apical to basolateral, read-out: Caco2 Papp (AB)
[4] = Caco-2, pH 7.4, basolateral to apical, read-out: Caco2 Papp (BA)
[5] = Caco-2, pH 7.4, +0.5% BSA, read-out: Caco 2 apparent permeability Papp (A−B)
[6] = Caco-2, pH 7.4, +0.5% BSA, read-out: Caco 2 apparent permeability Papp (B−A)

| Structure (SMILES) | fraction unbound at 30 min, 1 μM [1] | Papp A→B at 2 h, 1 μM [2, 3] [×10⁻⁶ cm/s] | Papp B→A at 2 h, 1 μM [2, 4] [×10⁻⁶ cm/s] | Papp A→B at 2 h, 1 μM [2, 5] [×10⁻⁶ cm/s] | Papp B→A at 2 h, 1 μM [2, 6] [×10⁻⁶ cm/s] | fraction unbound at 5.5 h, 1 μM [1] |
| --- | --- | --- | --- | --- | --- | --- |
| O=c1c2cc(-c3ccc(C(F)(F)F)nc3)nc(-c3cccnc3)c2ncn1[C@@H]1COC[C@H]1O [Compound 79] | < 0.25 |  |  |  |  |  |
| CC(C)(O)Cn1cnc2c(-c3cccnc3)nc(-c3ccc(C(F)(F)F)cn3)cc2c1=O [Compound 105] | < 0.25 | > 10 | 2 to 10 |  |  |  |
| Cn1cc(-c2nc(-c3ccc(C(F)(F)F)cn3)cc3c(=O)n(CC(C)(C)O)cnc23)cn1 [Compound 103, 3-(2-hydroxy-2-methylpropyl)-8-(1-methyl-1H-pyrazol-4-yl)-6-(5-(trifluoromethyl)pyridin-2-yl)pyrido[3,4-d]pyrimidin-4(3H)-one] | < 0.25 | 2 to 10 | < 2 |  |  |  |
| C[C@@H](CO)n1cnc2c(-c3cccc(F)c3)nc(-c3ccc(C(F)(F)F)nc3)cc2c1=O [Compound 8] | < 0.25 | 2 to 10 | 2 to 10 |  |  |  |
| C[C@@H](CO)n1cnc2c(-n3ccnc3)nc(-c3ccc(OC(F)(F)F)cc3)cc2c1=O [Compound 44, (S)-3-(1-hydroxypropan-2-yl)-8-(1H-imidazol-1-yl)-6-(4-(trifluoromethoxy)-phenyl)pyrido[3,4-d]pyrimidin-4(3H)-one] | < 0.25 | 2 to 10 | 2 to 10 |  |  |  |
| C[C@@H](n1cnc2c(-c3cccnc3)nc(-c3ccc(Cl)cc3)cc2c1=O)C(C)(C)O [Compound 33] | < 0.25 | 2 to 10 | 2 to 10 |  |  |  |
| O=c1c2cc(-c3ccc(Cl)cc3)nc(-c3cccnc3)c2ncn1[C@H]1COC[C@@H]1O [Compound 125, 6-(4-chlorophenyl)-3-((3S,4R)-4-hydroxytetrahydrofuran-3-yl)-8-(pyridin-3-yl)pyrido[3,4-d]pyrimidin-4(3H)-one] | < 0.25 |  |  |  |  |  |
| C[C@@H](CO)n1cnc2c(-c3cccnc3)nc(-c3ccc(C(F)(F)F)cn3)cc2c1=O [Compound 46, (S)-3-(1-hydroxypropan-2-yl)-8-(pyridin-3-yl)-6-(5-(trifluoromethyl)pyridin-2-yl)pyrido[3,4-d]pyrimidin-4(3H)-one] | < 0.25 | > 10 | > 10 | 12.6 | 16.4 | 0.108 |
| CC(C)(O)Cn1cnc2c(-c3cccnc3)nc(-c3ccc(Cl)cc3)cc2c1=O [Compound 18] | < 0.25 | 2 to 10 | 2 to 10 |  |  |  |
| CC(C)(O)Cn1cnc2c(-c3cccnc3)nc(-c3ccc(C(F)(F)F)cc3)cc2c1=O [Compound 16] | < 0.25 | 2 to 10 | 2 to 10 |  |  |  |
| C[C@@H](n1cnc2c(-c3cnn(C)c3)nc(-c3ccc(Cl)cc3)cc2c1=O)C(C)(C)O [Compound 31] |  | 2 to 10 | < 2 |  |  |  |
| C[C@@H](CO)n1cnc2c(-c3cccnc3)nc(-c3ccc(C(F)(F)F)nc3)cc2c1=O [Compound 12] | < 0.25 | 2 to 10 | > 10 |  |  |  |
| CC(C)(O)Cn1cnc2c(-c3cccnc3)nc(-c3ccc(C(F)(F)F)nc3)cc2c1=O [Compound 9] | < 0.25 | 2 to 10 | > 10 | 9.6 | 25 | 0.109 |
| C[C@@H](CO)n1cnc2c(-c3cnn(C)c3)nc(-c3ccc(C(F)(F)F)nc3)cc2c1=O [Compound 68] | < 0.25 |  |  |  |  |  |
| Cn1cc(-c2nc(-c3ccc(Cl)cc3)cc3c(=O)n(CC(C)(C)O)cnc23)cn1 [Compound 21] | < 0.25 | 2 to 10 | < 2 |  |  |  |
| C[C@@H](CO)n1cnc2c(-c3cccc(F)c3)nc(-c3ccc(C(F)(F)F)cn3)cc2c1=O [Compound 47, (S)-8-(3-fluorophenyl)-3-(1-hydroxypropan-2-yl)-6-(5-(trifluoromethyl)pyridin-2-yl)pyrido[3,4-d]pyrimidin-4(3H)-one] | < 0.25 | < 2 | < 2 |  |  |  |
| C[C@@H](CO)n1cnc2c(-c3cncc(F)c3)nc(-c3ccc(OC(F)(F)F)cc3)cc2c1=O [Compound 1, (S)-8-(5-fluoropyridin-3-yl)-3-(1-hydroxypropan-2-yl)-6-(4-(trifluoromethoxy)phenyl)pyrido[3,4-d]pyrimidin-4(3H)-one] | < 0.25 | 2 to 10 | < 2 |  |  |  |
| C[C@H](n1cnc2c(-c3cccnc3)nc(-c3cccnc3)cc2c1=O)C(C)(C)O [Compound 34] |  | 2 to 10 | > 10 |  |  |  |
| C[C@H](n1cnc2c(-c3cnn(C)c3)nc(-c3ccc(Cl)cc3)cc2c1=O)C(C)(C)O [Compound 30] |  | 2 to 10 | < 2 |  |  |  |
